From PMC4403042, “Atrial-like cardiomyocytes from human pluripotent stem cells are a robust preclinical model for assessing atrial-selective pharmacology” (EMBO Molecular Medicine, 2015) come the findings set out here.

One test relates to hESC-ventricular CMs. Description: Action potential recording (amphotericin-B-perforated patch-clamp) in hESC-ventricular CMs. The test is classed as cell-based, human. The note with it: 1 Hz; for APAmax / APAplat / APD20 / dV/dtmax / APD50 / APD90: hESC-VM, n=5, mean±SEM. How it is done:
(§1) Spin EBs resulting from control and RA-treated differentiations were dissociated at day 17 to single cells using TrypLE™ Select (Life Technologies) and plated on gelatin-coated coverslips. Electrophysiological measurements were performed 10–14 days after dissociation from intrinsically quiescent single GFP^+ CMs that were able to contract upon field stimulation.
(§2) APs and membrane currents from hESC-CMs were recorded with the amphotericin-B-perforated patch-clamp technique at 36 ± 0.2°C using an Axopatch 200B amplifier (Molecular Devices, Sunnyvale, CA, USA). Cells were superfused with Tyrode's solution containing (in mmol/l) NaCl 140, KCl 5.4, CaCl2 1.8, MgCl2 1.0, glucose 5.5, and HEPES 5.0; pH was adjusted to 7.4 with NaOH. Pipettes (borosilicate glass; resistance 2–3 MΩ) were heat polished and filled with solution containing (in mmol/l) K-gluconate 125, KCl 20, NaCl 5, amphotericin-B 0.22 and HEPES 10; pH was adjusted to 7.2 with KOH. AP measurements were low-pass-filtered (cutoff frequency 10 kHz) and digitized at 40 kHz; membrane currents were measured at 1 and 4 kHz, respectively. Capacitance and series resistance were compensated by ≥ 80%, and APs were corrected for the calculated liquid junction potential (Barry & Lynch, [1991]). Voltage control, data acquisition and analysis were accomplished using custom software. Cell membrane capacitance (Cm) was estimated by dividing the time constant of the decay of the capacitive transient in response to 5 mV hyperpolarizing voltage clamp steps from −40 mV by the series resistance.
(§3) APs were elicited at 0.5 to 4 Hz by 3 ms, ∼1.2× threshold current pulses through the patch pipette. APs were characterized, as depicted in Fig2A, by resting membrane potential (RMP), maximum upstroke velocity (dV/dtmax), maximum AP amplitude (APAmax), AP plateau amplitude (APAplat, defined as the potential difference between RMP and potential at 20 ms after the upstroke), and the duration at 20, 50 and 90% repolarization (APD20, APD50, and APD90, respectively). Parameter values obtained from 10 consecutive APs were averaged. […]
(§4) (1:2000, Sigma) was performed in TBS-0.05% Tween 20 containing 2% nonfat milk for 1 hour at room temperature. The corresponding secondary antibody conjugated to horseradish peroxidase (HRP) (1:2000; anti-mouse-HRP (#7076), Cell Signaling) was incubated for 1 h at room temperature in 2% nonfat milk. Blots were developed on X-ray films by using a chemiluminescent detection system (ECL; GE Life Science, […]
(§5) The effects of drugs were tested in paired measurements 5 minutes after the onset of bath application. 4-AP was prepared as a 50 mmol/L stock solution in Tyrode’s solution, and pH adjusted to 7.4, with the addition of HCl. CCh, a muscarinic receptor agonist, was prepared as a 10 mmol/L stock solution in Tyrode’s solution. Nifedipine was prepared as a 10 mmol/L stock solution in DMSO and stored at 4 °C. Stock solutions for the other compounds were prepared in DMSO: Vernakalant (30 mmol/L), XEN- D0101 (3 mmol/L), XEN-R0703 (2 mmol/L) and […]. All stock solutions were diluted appropriately before use.
(§6) Recombinant ion channel pharmacology
(§7) Studies were conducted at room temperature using the whole-cell patch-clamp technique. HEK293 cells expressing Kir3.1/3.4, Kir2.1, and CHO cells expressing Nav1.2, Cav1.2 or hERG were used.

The test system of another test is hESC-atrial CMs. Description: Action potential recording (amphotericin-B-perforated patch-clamp) in hESC-atrial CMs. Type of test: cell-based, human. Particulars: for reversibility of AP changes: washout. How it is done: as §1, §2, §3, §4, §5, §6, §7
(In patch-clamp work, channel activity is measured electrically.)

Where [1] appears, read: hESC-AM, 4-AP 50 μmol/l, 1 Hz, n=5, mean±SEM, Table S5.
The mark [2] stands for this setting: hESC-AM, CCh 10 μmol/l, 1 Hz, n=4, mean±SEM, Table S9.
The mark [3] stands for this setting: hESC-AM, CCh 10 μmol/l, 1 Hz, n=5, mean±SEM, Table S5.
Setting [4] is: XEN-D0101 3 μmol/l, 1 Hz, vs pre-drug.
[5] abbreviates: hESC-AM, XEN-D0101 3 μmol/l, 1 Hz, n=5, mean±SEM, Table S7.
Setting [6] is: vernakalant 30 μmol/l, Table S6.
The mark [7] stands for this setting: hESC-AM, vernakalant 30 μmol/l, 1 Hz, n=5, mean±SEM, Table S6.
The mark [8] stands for this setting: vernakalant 30 μmol/l, 1 Hz, vs pre-drug.

Molecules are shown by their SMILES. Bounds are passed on as bounds.

For the compound `Nc1ccncc1` [4-AP, 4-aminopyridine], in the test on hESC-ventricular CMs (4-AP 50 μmol/l, Table S5), the APAmax is on record as 99.0±4.0 mV, the APAplat is on record as 99.8±5.8 mV, the APD20 was found to be 83.1 ± 15.1 ms and the dV/dtmax stood at 49.9±11.1 V/s. In the test on hESC-atrial CMs (setting [1]), the APAmax is 94.6±3.0 mV, the APAplat was found to be 86.4±6.5 mV, the APD20 came out at 41.6 ± 8.1 ms and the APD50 is 72 ± 13 ms.

Turning to `C[N+](C)(C)CCOC(N)=O` [CCh, carbachol], the dV/dtmax in the test on hESC-ventricular CMs (CCh 10 μmol/l) came out at 129.9±54 V/s. In the test with hESC-ventricular CMs (CCh 10 μmol/l, Table S5), this compound displayed an APAmax of 104.4±9.1 mV and an APD20 of 112.9 ± 18.0 ms. In the test on hESC-ventricular CMs (CCh 10 μmol/l, Table S9), this compound had an APAmax of 110.5±7.8 mV, an APAplat of 109.6±7.5 mV, an APD20 of 122.9 ± 17.5 ms and an APD50 of 181.2 ± 27.6 ms. Besides, in the test with hESC-ventricular CMs (CCh 10 μmol/l, Table S9), the APD90 worked out at 230.6 ± 25.7 ms and the dV/dtmax amounted to 154.8±58.3 V/s. In the test with hESC-atrial CMs (setting [2]), this compound returned an APAmax of 88.9±1.4 mV, an APAplat of 72.4±3.1 mV, an APD20 of 23.9 ± 4.6 ms and an APD50 of 68.1 ± 7.7 ms. In addition, in the test on hESC-atrial CMs (setting [2]), the APD90 came to 141.2 ± 12.4 ms and the dV/dtmax came out at 40.0±5.2 V/s. In the test with hESC-atrial CMs (setting [3]), the APAmax stood at 89.1±1.1 mV, the APAplat was 72.6±2.3 mV, the APD20 was found to be 25.4 ± 3.8 ms and the APD50 is 67 ± 6 ms.

In the case of `O=C(NCCO)C1CCCN(c2nc(NCc3ccccn3)c3c(-c4ccccc4)csc3n2)C1` (stereo not shown) [XEN-D0101], the “effect on AP parameters” value in the test with hESC-ventricular CMs (XEN-D0101 3 μmol/l) was “did not s ignificantly alter any AP parameter”. In the test with hESC-ventricular CMs (XEN-D0101 3 μmol/l, Table S7), this compound gave an APAmax of 105.3±5.8 mV, an APAplat of 103.7±6.5 mV, an APD20 of 101.3 ± 14.0 ms and an APD50 of 158.4 ± 18.0 ms. In the test on hESC-ventricular CMs (XEN-D0101 3 μmol/l, Table S7), this compound registered an APD90 of 237.4 ± 21.9 ms. Further, in the test with hESC-atrial CMs (setting [4]), the “change of APA” value is listed as > 10 mV, the “change of dV/dtmax” value was > 8 V/s, the “elevation of APAplat” value is reported as > 26 mV and the “prolongation of APD20” value is given as > 30 ms. Also, in the test with hESC-atrial CMs (setting [4]), the “prolongation of APD50” value is reported as > 35 ms and the “prolongation of APD90” value is > 23 ms. For the same compound, the “reversibility of AP changes” value in the test with hESC-atrial CMs (XEN-D0101 3 μmol/l) was “reversible upon washout”. Further, in the test on hESC-atrial CMs (setting [5]), the APAmax is listed as 98.9±5.8 mV, the APAplat worked out at 86.8±7.4 mV, the APD20 worked out at 55.7 ± 16.2 ms and the APD50 was determined as 91.3 ± 22.6 ms. The APD90 in the test on hESC-atrial CMs (setting [5]) turned out to be 156.2 ± 22.8 ms.

In the case of `COc1ccc(CCO[C@@H]2CCCC[C@H]2N2CC[C@@H](O)C2)cc1OC` [vernakalant], in the test on hESC-ventricular CMs (setting [6]), the APAmax came to 104±2.2 mV, the APAplat is listed as 101.3±2.8 mV, the APD20 is 68.6 ± 06.8 ms and the APD90 came out at 180.0 ± 17.7 ms. Also, the dV/dtmax in the test with hESC-ventricular CMs (setting [6]) was 58.3±6.1 V/s. Besides, the “effect on AP parameters” value in the test on hESC-ventricular CMs (vernakalant 30 μmol/l) is “reduced dV/dtmax but without affecting other AP parameters”. In the test on hESC-atrial CMs (setting [7]), the APAmax was determined as 80.3±2.2 mV, the APAplat stood at 73.6±4.9 mV, the APD20 was 29.7 ± 4.0 ms and the APD50 came out at 65.4 ± 7.7 ms. Besides, in the test on hESC-atrial CMs (setting [7]), the APD90 came to 177.2 ± 08.2 ms, the RMP is on record as -74.2±2.5 mV and the dV/dtmax is listed as 40.4±3.8 V/s. In addition, in the test on hESC-atrial CMs (setting [8]), the “increase of APAmax” value is reported as > 2.5 mV, the “increase of APAplat” value is reported as > 20%, the “prolongation of APD20” value is given as > 7.5 ms and the “prolongation of APD50” value was > 15 ms. Further, the “prolongation of APD90” value with hESC-atrial CMs (setting [8]) is recorded as > 22 ms. In the test with hESC-atrial CMs (vernakalant 30 μmol/l), the “reversibility of AP changes” value was “nearly reversible upon washout”.
